Source: US9266883B2, “Ring-fused bicyclic pyridyl derivatives as FGFR4 inhibitors” (Novartis AG, priority 2013, dated 2016)
Structures can show the parent of a compound that is named as a salt. Where two headings read alike, the source gives them in different places.

Legend:
[1] = target: FGFR4 (GST-FGFR4(388-802)) (Homo sapiens (Human), UniProt P22455); experiment: In-vitro biochemical kinase assay for FGFR4 (Caliper microfluidic mobility shift)
Tel-FGFR4 = Tel-FGFR4 (Homo sapiens (Human), UniProt P22455); experiment: In vitro cellular kinase assay for FGFR4 (BaF3-Tel-FGFR4 cells, MSD capture ELISA of tyrosine phosphorylation); assay type: cell-based
[2] = read-out: Biochemical FGFR4 IC50
[3] = BaF3-Tel-FGFR4 cells, 1 hour incubation, read-out: Cellular BaF3 FGFR4 IC50
[4] = biochemical FGFR4 assay, read-out: Biochemical IC50
[5] = Cellular BaF3 FGFR4 assay, read-out: Cellular IC50
[6] = measured and considered as outlier values, not included in the table or list, read-out: IC50 in the cellular BaF3 FGFR4 assay, outlier values

Chain of FGFR4 (GST-FGFR4(388-802)) (P22455 388-802): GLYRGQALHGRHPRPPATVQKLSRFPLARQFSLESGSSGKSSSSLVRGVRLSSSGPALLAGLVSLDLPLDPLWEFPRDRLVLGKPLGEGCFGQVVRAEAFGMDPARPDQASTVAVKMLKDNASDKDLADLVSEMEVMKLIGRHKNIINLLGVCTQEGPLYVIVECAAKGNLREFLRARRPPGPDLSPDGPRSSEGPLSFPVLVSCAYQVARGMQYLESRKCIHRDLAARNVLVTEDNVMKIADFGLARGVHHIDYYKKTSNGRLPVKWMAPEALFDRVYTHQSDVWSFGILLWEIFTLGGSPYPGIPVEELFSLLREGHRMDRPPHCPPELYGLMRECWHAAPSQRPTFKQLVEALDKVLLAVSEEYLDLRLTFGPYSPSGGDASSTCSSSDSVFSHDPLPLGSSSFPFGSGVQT
Chain of Tel-FGFR4 (P22455 other isoform, or with tags, fused parts or gaps): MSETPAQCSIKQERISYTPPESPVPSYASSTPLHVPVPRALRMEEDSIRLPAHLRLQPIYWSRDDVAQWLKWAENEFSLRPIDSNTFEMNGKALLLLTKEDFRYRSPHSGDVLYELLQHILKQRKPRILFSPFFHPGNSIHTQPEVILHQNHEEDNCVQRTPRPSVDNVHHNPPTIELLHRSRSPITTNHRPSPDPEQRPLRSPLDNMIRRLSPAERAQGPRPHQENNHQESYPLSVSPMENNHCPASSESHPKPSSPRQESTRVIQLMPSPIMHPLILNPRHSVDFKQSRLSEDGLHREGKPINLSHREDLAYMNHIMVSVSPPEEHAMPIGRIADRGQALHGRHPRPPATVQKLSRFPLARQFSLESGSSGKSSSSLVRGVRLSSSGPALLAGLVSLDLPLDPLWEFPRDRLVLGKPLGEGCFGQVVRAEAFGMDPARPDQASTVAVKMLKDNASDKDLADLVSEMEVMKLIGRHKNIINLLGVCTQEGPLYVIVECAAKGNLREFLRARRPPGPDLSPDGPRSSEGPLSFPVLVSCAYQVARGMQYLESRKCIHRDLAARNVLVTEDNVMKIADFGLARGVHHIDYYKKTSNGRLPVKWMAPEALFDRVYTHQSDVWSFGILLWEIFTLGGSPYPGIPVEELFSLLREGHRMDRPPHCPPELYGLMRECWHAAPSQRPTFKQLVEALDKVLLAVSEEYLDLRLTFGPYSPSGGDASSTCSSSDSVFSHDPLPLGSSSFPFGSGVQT

IC50 [1, 4]	IC50 (Tel-FGFR4; [5])	SMILES	IC50 [1, 2]	IC50 (Tel-FGFR4; [3])	IC50 (Tel-FGFR4; [6])
1.7 nM	17 nM	CC(C)Oc1cc(NC(=O)N2CCCc3cc(CN4CCN(C)C(=O)C4)c(C=O)nc32)ncc1C#N [N-(5-cyano-4-isopropoxypyridin-2-yl)-7-formyl-6-((4-methyl-3-oxopiperazin-1-yl)methyl)-3,4-dihydro-1,8-naphthyridine-1(2H)-carboxamide]			
5.9 nM	37 nM	COC(C)(C)CNc1cc(NC(=O)N2CCCc3cc(C(F)F)c(C=O)nc32)ncc1C#N [N-(5-cyano-4-((2-methoxy-2-methylpropyl)amino)pyridin-2-yl)-6-(difluoromethyl)-7-formyl-3,4-dihydro-1,8-naphthyridine-1(2H)-carboxamide]			
1.3 nM	5.6 nM	CC(C)Oc1cc(NC(=O)N2CCCc3cc(CN4CCOC4=O)c(C=O)nc32)ncc1C#N [N-(5-cyano-4-isopropoxypyridin-2-yl)-7-formyl-6-((2-oxooxazolidin-3-yl)methyl)-3,4-dihydro-1,8-naphthyridine-1(2H)-carboxamide]			
0.2 nM	11.1 nM	CC(C)Oc1cc(NC(=O)N2CCCc3cc(CN4C[C@@H](N(C)C)CC4=O)c(C=O)nc32)ncc1C#N [(S)-N-(5-cyano-4-isopropoxypyridin-2-yl)-6-((4-(dimethylamino)-2-oxopyrrolidin-1-yl)methyl)-7-formyl-3,4-dihydro-1,8-naphthyridine-1(2H)-carboxamide]			
0.2 nM	10.2 nM	CCNc1cc(NC(=O)N2CCCc3cc(CN(CC)C(=O)CN(C)C)c(C=O)nc32)ncc1C#N [N-(5-cyano-4-(ethylamino)pyridin-2-yl)-6-((2-(dimethylamino)-N-ethylacetamido)methyl)-7-formyl-3,4-dihydro-1,8-naphthyridine-1(2H)-carboxamide]			
0.5 nM	5.5 nM	CCN(Cc1cc2c(nc1C=O)N(C(=O)Nc1cc(NCCOC)c(C#N)cn1)CCC2)C(=O)CN(C)C [N-(5-cyano-4-((2-methoxyethyl)amino)pyridin-2-yl)-6-((2-(dimethylamino)-N-ethylacetamido)methyl)-7-formyl-3,4-dihydro-1,8-naphthyridine-1(2H)-carboxamide]			
3.4 nM	12 nM	CCNc1cc(NC(=O)N2CCCc3cc(CN4CCN(C)CC4=O)c(C=O)nc32)ncc1C#N [N-(5-cyano-4-(ethylamino)pyridin-2-yl)-7-formyl-6-((4-methyl-2-oxopiperazin-1-yl)methyl)-3,4-dihydro-1,8-naphthyridine-1(2H)-carboxamide]			
2.6 nM	21 nM	CC(=O)N(C)Cc1cc2c(nc1C=O)N(C(=O)Nc1cc(NCC3CN(C)CCO3)c(C#N)cn1)CCC2 (centres unmarked) [N-(5-cyano-4-(((4-methylmorpholin-2-yl)methyl)amino)pyridin-2-yl)-7-formyl-6-((N-methylacetamido)methyl)-3,4-dihydro-1,8-naphthyridine-1(2H)-carboxamide]			
0.3 nM	2.3 nM	COC[C@@H](C)Oc1cc(NC(=O)N2CCCc3cc(CN4CCCC4=O)c(C=O)nc32)ncc1C#N [(R)-N-(5-cyano-4-((1-methoxypropan-2-yl)oxy)pyridin-2-yl)-7-formyl-6-((2-oxopyrrolidin-1-yl)methyl)-3,4-dihydro-1,8-naphthyridine-1(2H)-carboxamide]			
1.4 nM	11 nM	COCCNc1cc(NC(=O)N2CCCc3cc(CN4C(=O)CN(C)CC4(C)C)c(C=O)nc32)ncc1C#N [N-(5-cyano-4-((2-methoxyethyl)amino)pyridin-2-yl)-7-formyl-6-((2,2,4-trimethyl-6-oxopiperazin-1-yl)methyl)-3,4-dihydro-1,8-naphthyridine-1(2H)-carboxamide]			
1.1 nM	18.8 nM	COC(C)CNc1cc(NC(=O)N2CCCc3cc(C(F)F)c(C=O)nc32)ncc1C#N (centres unmarked) [N-(5-cyano-4-((2-methoxypropyl)amino)pyridin-2-yl)-6-(difluoromethyl)-7-formyl-3,4-dihydro-1,8-naphthyridine-1(2H)-carboxamide]			
0.1 nM	5.9 nM	COCCNc1cc(NC(=O)N2CCCc3cc(CN4CCNC(C)(C)C4=O)c(C=O)nc32)ncc1C#N [N-(5-cyano-4-((2-methoxyethyl)amino)pyridin-2-yl)-6-((3,3-dimethyl-2-oxopiperazin-1-yl)methyl)-7-formyl-3,4-dihydro-1,8-naphthyridine-1(2H)-carboxamide]			
0.8 nM	10.4 nM	CCN(Cc1cc2c(nc1C=O)N(C(=O)Nc1cc(NC(C)C)c(C#N)cn1)CCC2)C(=O)CN(C)C [N-(5-cyano-4-(isopropylamino)pyridin-2-yl)-6-((2-(dimethylamino)-N-ethylacetamido)methyl)-7-formyl-3,4-dihydro-1,8-naphthyridine-1(2H)-carboxamide]			

Further lines, the compound ahead of its results:

SMILES	IC50 [1, 4]	IC50 (Tel-FGFR4; [5])	IC50 [1, 2]	IC50 (Tel-FGFR4; [3])	IC50 (Tel-FGFR4; [6])
CC(C)Oc1cc(NC(=O)N2CCCc3cc(CN4CCN(C)CC4=O)c(C=O)nc32)ncc1C#N [Example 92, N-(5-cyano-4-isopropoxypyridin-2-yl)-7-formyl-6-((4-methyl-2-oxopiperazin-1-yl)methyl)-3,4-dihydro-1,8-naphthyridine-1(2H)-carboxamide]			0.7 nM	3.3 nM	
N#Cc1cnc(NC(=O)N2CCCc3cc(CO)c(C=O)nc32)cc1OCC1CCCO1 (racemic) [Example 43, N-(5-cyano-4-((tetrahydrofuran-2-yl)methoxy)pyridin-2-yl)-7-formyl-6-(hydroxymethyl)-3,4-dihydro-1,8-naphthyridine-1(2H)-carboxamide]			5.2 nM	7.5 nM	
COc1cc(NC(=O)N2CCCc3cc(CN4CCCC4(C)C)c(C=O)nc32)ncc1C#N [N-(5-cyano-4-methoxypyridin-2-yl)-6-((2,2-dimethylpyrrolidin-1-yl)methyl)-7-formyl-3,4-dihydro-1,8-naphthyridine-1(2H)-carboxamide]	440 nM	> 3000 nM			
COCCNc1cc(NC(=O)N2CCCc3cc(CN4CC[N+](C)([O-])CC4=O)c(C=O)nc32)ncc1C#N (centres unmarked) [Example 222, 4-((8-((5-cyano-4-((2-methoxyethyl)amino)pyridin-2-yl)carbamoyl)-2-formyl-5,6,7,8-tetrahydro-1,8-naphthyridin-3-yl)methyl)-1-methyl-3-oxopiperazine 1-oxide]			< 4.8 nM	41.3 nM	
COC[C@@H](C)Oc1cc(NC(=O)N2CCCc3cc(CN(C)C(C)=O)c(C=O)nc32)ncc1C#N [(R)-N-(5-cyano-4-((1-methoxypropan-2-yl)oxy)pyridin-2-yl)-7-formyl-6-((N-methylacetamido)methyl)-3,4-dihydro-1,8-naphthyridine-1(2H)-carboxamide]	0.5 nM	3.7 nM			174 nM
CN1CCN(Cc2cc3c(nc2C=O)N(C(=O)Nc2cc(NCC(C)(C)O)c(C#N)cn2)CCC3)C(=O)C1 [N-(5-cyano-4-((2-hydroxy-2-methylpropyl)amino)pyridin-2-yl)-7-formyl-6-((4-methyl-2-oxopiperazin-1-yl)methyl)-3,4-dihydro-1,8-naphthyridine-1(2H)-carboxamide]	0.9 nM	4.8 nM			
CN1CCN(Cc2cc3c(nc2C=O)N(C(=O)Nc2cc(NCCOS(=O)(=O)O)c(C#N)cn2)CCC3)C(=O)C1 [Example 236, 2-((5-cyano-2-(7-formyl-6-((4-methyl-2-oxopiperazin-1-yl)methyl)-1,2,3,4-tetrahydro-1,8-naphthyridine-1-carboxamido)pyridin-4-yl)amino)ethyl hydrogen sulfate]			8.2 nM	1130 nM	> 3000 nM
COc1cc(NC(=O)N2CCCc3cc(CN4CCN(C)CC4=O)c(C=O)nc32)ncc1C#N [N-(5-cyano-4-methoxypyridin-2-yl)-7-formyl-6-((4-methyl-2-oxopiperazin-1-yl)methyl)-3,4-dihydro-1,8-naphthyridine-1(2H)-carboxamide]	4.8 nM	10.2 nM			
COCCNc1cc(NC(=O)N2CCCc3cc(CN4CC[C@@H](N(C)C)C4=O)c(C=O)nc32)ncc1C#N [(R)-N-(5-cyano-4-((2-methoxyethyl)amino)pyridin-2-yl)-6-((3-(dimethylamino)-2-oxopyrrolidin-1-yl)methyl)-7-formyl-3,4-dihydro-1,8-naphthyridine-1(2H)-carboxamide]	1.6 nM	3.9 nM			
CC(C)(O)CNc1cc(NC(=O)N2CCCc3cc(C(F)F)c(C=O)nc32)ncc1C#N [N-(5-cyano-4-((2-hydroxy-2-methylpropyl)amino)pyridin-2-yl)-6-(difluoromethyl)-7-formyl-3,4-dihydro-1,8-naphthyridine-1(2H)-carboxamide]	1.6 nM	10.3 nM			
CN1CCN(Cc2cc3c(nc2C=O)N(C(=O)Nc2cc(OCC(F)F)c(C#N)cn2)CCC3)C(=O)C1 [N-(5-cyano-4-(2,2-difluoroethoxyl)pyridin-2-yl)-7-formyl-6-((4-methyl-2-oxopiperazin-1-yl)methyl)-3,4-dihydro-1,8-naphthyridine-1(2H)-carboxamide]	1.2 nM	6.7 nM			
O=Cc1ccc2c(n1)N(C(=O)Nc1cc(Cl)c(Cl)cn1)CCC2 [Example 2, N-(4,5-dichloropyridin-2-yl)-7-formyl-3,4-dihydro-1,8-naphthyridine-1(2H)-carboxamide]			30 nM	> 3000 nM	
COC[C@H](C)Nc1cc(NC(=O)N2CCCc3cc(CN4CCCC4=O)c(C=O)nc32)ncc1C#N [(S)-N-(5-cyano-4-((1-methoxypropan-2-yl)amino)pyridin-2-yl)-7-formyl-6-((2-oxopyrrolidin-1-yl)methyl)-3,4-dihydro-1,8-naphthyridine-1(2H)-carboxamide]	1.9 nM	4.9 nM			
CO[C@@H](C)COc1cc(NC(=O)N2CCCc3cc(CN4CCN(C)CC4=O)c(C=O)nc32)ncc1C#N [(S)-N-(5-cyano-4-(2-methoxypropoxyl)pyridin-2-yl)-7-formyl-6-((4-methyl-2-oxopiperazin-1-yl)methyl)-3,4-dihydro-1,8-naphthyridine-1(2H)-carboxamide]	2.2 nM	10.8 nM			
